In patent publication US10101655B2, “Compound, polymer, photosensitive resin composition, and color filter” (SAMSUNG SDI CO., LTD., priority 2016, dated 2018):

Test: Evaluation 1: Solubility Measurement (dissolution state in dilution solvents)
Type: physicochemical
Conditions: stirred at 25° C. and 100 rpm for one hour; for Amount of dissolved compound (wt %), CH2Cl2: solvent CH2Cl2 added to 0.5 g of compound; for Amount of dissolved compound (wt %), MeOH: solvent MeOH added to 0.5 g of compound; for Amount of dissolved compound (wt %), Cyclohexanone: solvent cyclohexanone added to 0.5 g of compound
Procedure: Evaluation 1: Solubility Measurement
Dilution solvents (MeOH, CH2Cl2, cyclohexanone) were respectively added to 0.5 g of the compounds represented by Chemical Formula 6-1 to Chemical Formula 17-2 and the compound represented by Chemical Formula X-1, and each solution was stirred with Mixrotar VMR-5 (Iuchi Seieido Co., Ltd.) at 25° C. and 100 rpm for one hour.

Amount of dissolved compound (wt %), CH2Cl2 [% wt %] | Amount of dissolved compound (wt %), MeOH [% wt %] | Amount of dissolved compound (wt %), Cyclohexanone [% wt %] | Compound
>10 | >10 | >3 | C=C(C)C(=O)OCCNC(=O)OCCN(CC)c1ccc2c(-c3ccccc3S(=O)(=O)[N-]S(=O)(=O)C(F)(F)F)c3cc/c(=[N+](\CC)c4ccccc4)cc-3oc2c1 [Chemical Formula 8-2]
>10 | >10 | >1 | CCN(CCOC(=O)Nc1ccccc1)c1ccc2c(-c3ccccc3S(=O)(=O)[N-]S(=O)(=O)C(F)(F)F)c3ccc(=[N+](CC)CC)cc-3oc2c1 [Chemical Formula 9-2]
>10 | >10 | >3 | CCN(CCOC(=O)NC1CCCCC1)c1ccc2c(-c3ccccc3S(=O)(=O)[N-]S(=O)(=O)C(F)(F)F)c3cc/c(=[N+](/CC)CCOC(=O)NC4CCCCC4)cc-3oc2c1 [Chemical Formula 17-2]
>10 | >10 | >3 | C=C(C)C(=O)OCCNC(=O)OCCN(CCCC)c1ccc2c(-c3ccccc3S(=O)(=O)[N-]S(=O)(=O)C(F)(F)F)c3cc/c(=[N+](\CC)CCCC)cc-3oc2c1 [Chemical Formula 7-2]
>10 | >10 | >1 | CCN(CCOC(=O)NC1CCCCC1)c1ccc2c(-c3ccccc3S(=O)(=O)[O-])c3ccc(=[N+](CC)CC)cc-3oc2c1 [Chemical Formula 16-1]
>10 | >10 | >5 | C=C(C)C(=O)OCCNC(=O)OCCN(CCCC)c1ccc2c(-c3ccccc3S(=O)(=O)[N-]S(=O)(=O)C(F)(F)F)c3cc/c(=[N+](/CCCC)CCOC(=O)NCCOC(=O)C(=C)C)cc-3oc2c1 [Chemical Formula 11-2]
>10 | >10 | >3 | C=C(C)C(=O)OCCNC(=O)OCCN(CC)c1ccc2c(-c3ccccc3S(=O)(=O)[O-])c3cc/c(=[N+](\CC)c4ccccc4)cc-3oc2c1 [Chemical Formula 8-1]
>10 | >10 | >5 | C=CC(=O)OCCNC(=O)OCCN(CC)c1ccc2c(-c3ccccc3S(=O)(=O)[N-]S(=O)(=O)C(F)(F)F)c3cc/c(=[N+](/CC)CCOC(=O)NCCOC(=O)C=C)cc-3oc2c1 [Chemical Formula 14-2]
>10 | >10 | >1 | CCN(CCOC(=O)NC1CCCCC1)c1ccc2c(-c3ccccc3S(=O)(=O)[N-]S(=O)(=O)C(F)(F)F)c3ccc(=[N+](CC)CC)cc-3oc2c1 [Chemical Formula 16-2]
>10 | >10 | >3 | C=C(C)C(=O)OCCNC(=O)OCCN(CC)c1ccc2c(-c3ccccc3S(=O)(=O)[N-]S(=O)(=O)C(F)(F)F)c3ccc(=[N+](CC)CC)cc-3oc2c1 [Chemical Formula 6-2]
>10 | >10 | >5 | C=C(C)c1cccc(C(C)(C)NC(=O)OCCN(CC)c2ccc3c(-c4ccccc4S(=O)(=O)[O-])c4cc/c(=[N+](/CC)CCOC(=O)NC(C)(C)c5cccc(C(=C)C)c5)cc-4oc3c2)c1 [Chemical Formula 15-1]
>10 | >10 | >5 | C=C(C)C(=O)OCCNC(=O)OCCN(CC)c1ccc2c(-c3ccccc3S(=O)(=O)[N-]S(=O)(=O)C(F)(F)F)c3cc/c(=[N+](/CC)CCOC(=O)NCCOC(=O)C(=C)C)cc-3oc2c1 [Chemical Formula 10-2]
>10 | >10 | >3 | CCN(CCOC(=O)NC1CCCCC1)c1ccc2c(-c3ccccc3S(=O)(=O)[O-])c3cc/c(=[N+](/CC)CCOC(=O)NC4CCCCC4)cc-3oc2c1 [Chemical Formula 17-1]
>10 | >10 | >5 | C=C(C)C(=O)OCCNC(=O)OCCN(CCCC)c1ccc2c(-c3ccccc3S(=O)(=O)[O-])c3cc/c(=[N+](/CCCC)CCOC(=O)NCCOC(=O)C(=C)C)cc-3oc2c1 [Chemical Formula 11-1]
>10 | >10 | >5 | C=C(C)C(=O)OCCNC(=O)OCCN(CC)c1ccc2c(-c3ccccc3S(=O)(=O)[O-])c3cc/c(=[N+](/CC)CCOC(=O)NCCOC(=O)C(=C)C)cc-3oc2c1 [Chemical Formula 10-1]
>10 | >10 | >5 | C=C(C)C(=O)OCCNC(=O)OCCN(CC)c1ccc2c(-c3ccccc3S(=O)(=O)[N-]S(=O)(=O)C(F)(F)F)c3cc/c(=[N+](\CCOC(=O)NCCOC(=O)C(=C)C)c4ccccc4)cc-3oc2c1 [Chemical Formula 12-2]
>10 | >10 | >3 | CCN(CCOC(=O)Nc1ccccc1)c1ccc2c(-c3ccccc3S(=O)(=O)[O-])c3cc/c(=[N+](/CC)CCOC(=O)Nc4ccccc4)cc-3oc2c1 [Chemical Formula 13-1]
>10 | >10 | >5 | C=C(C)C(=O)OCCNC(=O)OCCN(CC)c1ccc2c(-c3ccccc3S(=O)(=O)[O-])c3cc/c(=[N+](\CCOC(=O)NCCOC(=O)C(=C)C)c4ccccc4)cc-3oc2c1 [Chemical Formula 12-1]
>10 | >10 | >3 | CCN(CCOC(=O)Nc1ccccc1)c1ccc2c(-c3ccccc3S(=O)(=O)[N-]S(=O)(=O)C(F)(F)F)c3cc/c(=[N+](/CC)CCOC(=O)Nc4ccccc4)cc-3oc2c1 [Chemical Formula 13-2]
>10 | >10 | >3 | C=C(C)C(=O)OCCNC(=O)OCCN(CCCC)c1ccc2c(-c3ccccc3S(=O)(=O)[O-])c3cc/c(=[N+](\CC)CCCC)cc-3oc2c1 [Chemical Formula 7-1]
>10 | >10 | >5 | C=CC(=O)OCCNC(=O)OCCN(CC)c1ccc2c(-c3ccccc3S(=O)(=O)[O-])c3cc/c(=[N+](/CC)CCOC(=O)NCCOC(=O)C=C)cc-3oc2c1 [Chemical Formula 14-1]
>10 | >10 | >3 | C=C(C)C(=O)OCCNC(=O)OCCN(CC)c1ccc2c(-c3ccccc3S(=O)(=O)[O-])c3ccc(=[N+](CC)CC)cc-3oc2c1 [Chemical Formula 6-1]
>10 | >10 | >1 | CCN(CCOC(=O)Nc1ccccc1)c1ccc2c(-c3ccccc3S(=O)(=O)[O-])c3ccc(=[N+](CC)CC)cc-3oc2c1 [Chemical Formula 9-1]
<1 | >10 | <1 | CCN(CC)c1ccc2c(-c3ccccc3S(=O)(=O)O)c3ccc(=[N+](CC)CC)cc-3oc2c1 [Chemical Formula X-1, reference compound]
>10 | >10 | >5 | C=C(C)c1cccc(C(C)(C)NC(=O)OCCN(CC)c2ccc3c(-c4ccccc4S(=O)(=O)[N-]S(=O)(=O)C(F)(F)F)c4cc/c(=[N+](/CC)CCOC(=O)NC(C)(C)c5cccc(C(=C)C)c5)cc-4oc3c2)c1 [Chemical Formula 15-2]
